Measured values published in patent US20240376108A1, “SALT AND CRYSTAL FORM OF PYRAZOLE-CONTAINING POLYCYCLIC DERIVATIVE, AND PREPARATION METHOD THEREFOR AND USE THEREOF” (Shanghai Hansoh Biomedical Co., Ltd., priority 2021, published 2024).

Columns and labels:
[1] = Metabolic stability in liver microsome (human); assay type: in vitro ADME
Description: (§1) Test Example 5. Assay of Metabolic Stability in Liver Microsome
(§2) 1. Experimental objective: The objective of the experiment is to determine the stability of the compounds of the Examples in liver microsome of mouse, rat, dog and human.
(§3) 2.1 Formulation of the working solution of the compound: Formulation of the working solution of the compound: The stock solution of the compound was added to phosphate buffer, and the final concentration was 20 μM.
(§4) 2.2 Formulation of the working solution of liver microsome: Liver microsome was diluted with 100 mM phosphate buffer to obtain a final concentration of 0.625 mg/mL.
(§5) 2.3 Formulation of NADPH and UDPGA: NADPH (reduced nicotinamide adenine dinucleotide phosphate) and UDPGA (uridine diphosphate glucuronic acid) were weighed respectively, followed by addition of 100 mM phosphate buffer. The final concentrations were 20 mM.
(§6) 2.4 Formulation of the channel-forming reagent: 1 mg of Alamethicin was weighed, to which 200 μL of DMSO was added to obtain a 5 mg/mL solution. The solution was diluted with phosphate buffer to obtain a final concentration of 50 μg/mL.
(§7) 2.5 Formulation of the reaction stop solution: Stop solution: Cold acetonitrile containing 100 ng/mL labetalol hydrochloride and 400 ng/mL tolbutamide as internal standards.
(§8) 2.6 Incubation procedure: 400 μL of the prepared liver microsome, 25 μL of the working solution of the compound and 25 μL of Alamethicin were added to a 96-well plate successively, which was then pre-incubated at 37° C. for 10 minutes. 50 μL of the prepared NADPH/UDPGA was added to initiate the reaction, and the plate was incubated at 37° C. The total volume of the reaction system was 500 μL. The final contents of the components were as follows:
(§9) 2.7.1 Chromatographic conditions: • Instrument: Shimadzu LC-30 AD; Chromatographic column: XBridge® C18 (50*4.6 mm, particle size: 5 μm); • Mobile phase: A: 0.1% formic acid solution, B: methanol • Eluent gradient: 0.2˜1.6 min 5% A to 95% A, 3.0˜3.1 min 95% A to 5% A • Running time: 4.0 min.
(§10) 2.7.2 Mass spectrometry conditions: • Instrument: API5500 liquid chromatography-mass spectrometer, AB Sciex; • Ion source: Electrospray ionization source (ESI); Drying gas: N2, temperature: 500° C.; • Electrospray voltage: 5000V; Detection method: Positive ion detection; • Scanning mode: Mode of reaction monitoring (MRM).

[2] = Metabolic stability in liver microsome (rat); assay type: in vitro ADME; conditions: rat liver microsome, 60 min
Description: as §1, §2, §3, §4, §5, §6, §7, §8, §9, §10

[3] = Metabolic stability in liver microsome (mouse); assay type: in vitro ADME
Description: as §1, §2, §3, §4, §5, §6, §7, §8, §9, §10

[4] = Pharmacokinetic assay of the salt forms in rats (10 mg/kg); assay type: in vivo; conditions: SD rats
Description: 2.3 Pharmacokinetic assay of the methanesulfonate in rats
2.3.1. Study objective: SD rats were used as test animals. The pharmacokinetic behavior of various salt forms of 2-(2-cyano-5-oxo-8-(trifluoromethyl)pyrazolo[1,5-a]pyrido[3,2-e]pyrimidin-4(5H)-yl)-N-(5-fluoropyridin-2-yl)acetamide was studied in rat body (plasma) by orally administration at a dose of 10 mg/kg.
2.3.2.4 Administration: After an overnight fast, male SD rats (3 rats per group) were administered p.o. with the test compound at a dose of 10 mg/kg and a volume of 10 mL/kg.
2.3.2.5 Sample collection: 0.2 mL of blood was taken from the jugular vein of the rat before administration and at 0, 0.5, 1, 2, 4, 6, 8 and 24 hours after administration. The samples were stored in EDTA-K2 tubes, and centrifuged for 6 minutes at 4° C., 6000 rpm to separate the plasma. The plasma samples were stored at −80° C.
1) 160 μL of acetonitrile was added to 40 μL of the plasma sample for precipitation, and then the mixture was centrifuged at 3500×g for 5 to 20 minutes.
2) After the above process, 100 μL of the supernatant was taken to analyze the concentration of the test compound by LC/MS/MS.
2.3.2.7 Liquid chromatography analysis • Liquid chromatography condition: Shimadzu LC-20AD pump • Mass spectrometry condition: AB Sciex API 4000 mass spectrometer • Chromatographic column: phenomenex Gemiu 5 um C18 50×4.6 mm • Mobile phase: Eluent A was 0.1% formic acid in water, and Eluent B was acetonitrile • Flow rate: 0.8 mL/min • Elution time: 0-4.0 minutes, the eluent is as follows:
The main parameters of pharmacokinetics were calculated by WinNonlin 8.2.

[5] = Hygroscopicity experiment (DVS); assay type: physicochemical; conditions: 25° C.
Description: 7.1 Hygroscopicity experiment of crystal forms of different salts of compound 2-(2-cyano-5-oxo-8-(trifluoromethyl)pyrazolo[1,5-a]pyrido[3,2-e]pyrimidin-4(5H)-yl)-N-(5-fluoropyridin-2-yl)acetamide
7.1.1 Experimental objective: To investigate the hygroscopicity of crystal forms of different salts of compound 2-(2-cyano-5-oxo-8-(trifluoromethyl)pyrazolo[1,5-a]pyrido[3,2-e]pyrimidin-4(5H)-yl)-N-(5-fluoropyridin-2-yl)acetamide at different relative humidity, so as to provide a basis for storage.
7.1.2 Experimental protocol: Crystal forms of different salts of the compound were placed in saturated water vapor with different relative humidity to achieve dynamic equilibrium between the compound and water vapor, and the percentage of hygroscopic weight gain of the compound after equilibrium was calculated.

[6] = Solid stability experiment (high temperature, high humidity, high temperature and high humidity); assay type: physicochemical
Description: 4.1.1 Experimental objective: To investigate the physical and chemical stability of the crystal form of the compound under the conditions of high temperature, high humidity, as well as high temperature and high humidity, so as to provide a basis for crystal form screening and storage of the crystal form of the compound.
The content of the salt was determined by HPLC using the external standard method, and the change of relevant substances was calculated by using the chromatographic peak area normalization method.

[7] = Cycle 1, target relative humidity 0.0%
[8] = Cycle 1, target relative humidity 10.0%
[9] = Cycle 1, target relative humidity 20.0%
[10] = Cycle 1, target relative humidity 30.0%
[11] = Cycle 1, target relative humidity 40.0%
[12] = Cycle 1, target relative humidity 50.0%
[13] = Cycle 1, target relative humidity 60.0%
[14] = Cycle 1, target relative humidity 70.0%
[15] = Cycle 1, target relative humidity 80.0%
[16] = Cycle 1, target relative humidity 90.0%
[17] = Cycle 1, target relative humidity 95.0%
[18] = Cycle 2, target relative humidity 0.0%
[19] = Cycle 2, target relative humidity 10.0%
[20] = Cycle 2, target relative humidity 20.0%
[21] = Cycle 2, target relative humidity 30.0%
[22] = Cycle 2, target relative humidity 40.0%
[23] = Cycle 2, target relative humidity 50.0%
[24] = Cycle 2, target relative humidity 60.0%
[25] = Cycle 2, target relative humidity 70.0%
[26] = Cycle 2, target relative humidity 80.0%
[27] = Cycle 2, target relative humidity 90.0%
[28] = Cycle 2, target relative humidity 95.0%
[29] = High humidity (92.5% RH), Day 7
[30] = High humidity (92.5% RH), Day 14
[31] = High temperature (60° C.), Day 7
[32] = High temperature (60° C.), Day 14
[33] = High temperature and high humidity (50° C.&75% RH), Day 7
[34] = High temperature and high humidity (50° C.&75% RH), Day 14

Structure (SMILES): CCc1cc2n(CC(=O)Nc3ccc(F)cn3)c(=O)c3ccc(C(F)(F)F)nc3n2n1 [Example 12, 2-(2-Ethyl-5-oxo-8-(trifluoromethyl)pyrazolo[1,5-a]pyrido[3,2-e]pyrimidin-4(5H)-yl)-N-(5-fluoropyridin-2-yl)acetamide]
- Human t1/2 ([1]; human liver microsome 0.5 mg/mL, compound 1 μM, NADPH/UDPGA): ∞
- Human Remaining (%, 60 min) ([1]; human liver microsome, 60 min): 113.9%
- Rat Remaining (%, 60 min) [2]: 104.4%
- Mouse Remaining (%, 60 min) [3]: 81.3%

Structure (SMILES): N#Cc1cc2n(CC(=O)Nc3ccc(F)cn3)c(=O)c3ccc(C(F)(F)F)nc3n2n1.O=S(=O)(O)O [Sulfate (crystal form B), 2-(2-cyano-5-oxo-8-(trifluoromethyl)pyrazolo[1,5-a]pyrido[3,2-e]pyrimidin-4(5H)-yl)-N-(5-fluoropyridin-2-yl)acetamide sulfate]
- exposure AUC and maximum plasma concentration Cmax compared with the free base ([4]; 10 mg/kg): superior
- AUC(0-t) ([4]; male, rat, po, p.o. 10 mg/kg, plasma, vehicle 0.5% HPMC, read-out: Area under curve AUC0-t): 21600 ng·h/mL
- MRT inf ([4]; male, rat, po, p.o. 10 mg/kg, plasma, vehicle 0.5% HPMC, read-out: Average residence time MRT0-∞): 4.6 h
- half-life ([4]; male, rat, po, p.o. 10 mg/kg, plasma, vehicle 0.5% HPMC, read-out: Half life t1/2 (converted)): 2.8 h
- Tmax ([4]; male, rat, po, p.o. 10 mg/kg, plasma, vehicle 0.5% HPMC, read-out: Peak time tmax): 2 h
- Cmax ([4]; male, rat, po, p.o. 10 mg/kg, plasma, vehicle 0.5% HPMC, read-out: Plasma concentration Cmax): 3080 ng/mL
- % percentage of mass change, Desorption [5, 7]: −0.027%
- % percentage of mass change, Sorption [5, 7]: −0.002%
- % percentage of mass change, Desorption [5, 8]: 0.087%
- % percentage of mass change, Sorption [5, 8]: 0.099%
- % percentage of mass change, Desorption [5, 9]: 0.168%
- % percentage of mass change, Sorption [5, 9]: 0.171%
- % percentage of mass change, Desorption [5, 10]: 0.250%
- % percentage of mass change, Sorption [5, 10]: 0.236%
- % percentage of mass change, Desorption [5, 11]: 0.341%
- % percentage of mass change, Sorption [5, 11]: 0.303%
- % percentage of mass change, Desorption [5, 12]: 0.456%
- % percentage of mass change, Sorption [5, 12]: 0.376%
- % percentage of mass change, Desorption [5, 13]: 0.540%
- % percentage of mass change, Sorption [5, 13]: 0.455%
- % percentage of mass change, Desorption [5, 14]: 0.652%
- % percentage of mass change, Sorption [5, 14]: 0.552%
- % percentage of mass change, Desorption [5, 15]: 0.777%
- % percentage of mass change, Sorption [5, 15]: 0.691%
- % percentage of mass change, Desorption [5, 16]: 1.118%
- % percentage of mass change, Sorption [5, 16]: 1.010%
- % percentage of mass change, Desorption [5, 17]: 1.608%
- % percentage of mass change, Sorption [5, 17]: 1.608%
- % percentage of mass change, Desorption [5, 18]: −0.051%
- % percentage of mass change, Sorption [5, 18]: −0.027%
- % percentage of mass change, Desorption [5, 19]: 0.065%
- % percentage of mass change, Sorption [5, 19]: 0.070%
- % percentage of mass change, Desorption [5, 20]: 0.149%
- % percentage of mass change, Sorption [5, 20]: 0.147%
- % percentage of mass change, Desorption [5, 21]: 0.230%
- % percentage of mass change, Sorption [5, 21]: 0.218%
- % percentage of mass change, Desorption [5, 22]: 0.322%
- % percentage of mass change, Sorption [5, 22]: 0.287%
- % percentage of mass change, Desorption [5, 23]: 0.422%
- % percentage of mass change, Sorption [5, 23]: 0.369%
- % percentage of mass change, Desorption [5, 24]: 0.529%
- % percentage of mass change, Sorption [5, 24]: 0.450%
- % percentage of mass change, Desorption [5, 25]: 0.632%
- % percentage of mass change, Sorption [5, 25]: 0.545%
- % percentage of mass change, Desorption [5, 26]: 0.761%
- % percentage of mass change, Sorption [5, 26]: 0.682%
- % percentage of mass change, Desorption [5, 27]: 1.087%
- % percentage of mass change, Sorption [5, 27]: 1.007%
- % percentage of mass change, Desorption [5, 28]: 1.618%
- % percentage of mass change, Sorption [5, 28]: 1.618%
- solid stability under high humidity ([6]; 92.5% RH, 7 and 14 days): stable
- % increase of total impurities [6, 29]: <0.1%
- % maximum increase of single impurity [6, 29]: <0.1%
- % increase of total impurities [6, 30]: <0.1%
- % maximum increase of single impurity [6, 30]: <0.1%
- % increase of total impurities [6, 31]: >0.2%
- % maximum increase of single impurity [6, 31]: <0.1%
- % increase of total impurities [6, 32]: >0.4%
- % maximum increase of single impurity [6, 32]: >0.1%
- % increase of total impurities [6, 33]: >0.2%
- % maximum increase of single impurity [6, 33]: >0.1%
- % increase of total impurities [6, 34]: >0.2%
- % maximum increase of single impurity [6, 34]: >0.1%
